In ChEMBL document CHEMBL1201862, “PubChem BioAssay data set” (2004):
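96-well plates; 48 h exposure; 5 concentrations. Endpoints by linear interpolation between flanking doses. Not reached: highest tested concentration assigned. The concentration for 50% growth inhibition is given as GI50.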 Activity calls are given as the source filed them. Rule as the data show it: active = GI50 up to about 1.1 µM and inactive = higher.

Legend:
Assay in all cases: inhibition of tumour cell growth, NCI panel, 48 h
A549 = tested on: A549
CCRF-CEM = tested on: CCRF-CEM
HCC 2998 = tested on: HCC 2998
HOP-62 = tested on: HOP-62
HT-29 = tested on: HT-29
K562 = tested on: K562
KM12 = tested on: KM12
LOX IMVI = tested on: LOX IMVI
M14 = tested on: M14
MCF7 = tested on: MCF7
NCI-H226 = tested on: NCI-H226
PC-3 = tested on: PC-3
SF-268 = tested on: SF-268
SK-MEL-5 = tested on: SK-MEL-5
SNB-19 = tested on: SNB-19
SW-620 = tested on: SW-620
U-251 = tested on: U-251
UACC-62 = tested on: UACC-62
UO-31 = tested on: UO-31
SF-539 = tested on: SF-539

SMILES	GI50 (A549)	GI50 (CCRF-CEM)	GI50 (HCC 2998)	GI50 (HOP-62)	GI50 (HT-29)	GI50 (K562)	GI50 (KM12)	GI50 (LOX IMVI)	GI50 (M14)	GI50 (MCF7)	GI50 (NCI-H226)	GI50 (PC-3)	GI50 (SF-268)	GI50 (SK-MEL-5)	GI50 (SNB-19)	GI50 (SW-620)	GI50 (U-251)	GI50 (UACC-62)	GI50 (UO-31)	GI50 (SF-539)
COc1c2cc([N+](=O)[O-])cc1CNC(=O)CN1CCOCCOCCN(CCOCCOCC1)CC(=O)NC2	> 100 µM (inactive)	> 100 µM (inactive)	> 100 µM (inactive)	> 100 µM (inactive)	> 100 µM (inactive)	> 100 µM (inactive)	> 100 µM (inactive)	> 100 µM (inactive)	> 100 µM (inactive)	> 100 µM (inactive)	> 100 µM (inactive)	> 100 µM (inactive)	> 100 µM (inactive)	> 100 µM (inactive)	> 100 µM (inactive)	> 100 µM (inactive)	> 100 µM (inactive)	> 100 µM (inactive)	> 100 µM (inactive)	–
ClCc1nc2cc(Cl)ccc2o1	17 µM (inactive)	1.96 µM (inactive)	2.26 µM (inactive)	2.27 µM (inactive)	2.54 µM (inactive)	2.56 µM (inactive)	12.3 µM (inactive)	2.44 µM (inactive)	4.31 µM (inactive)	2.47 µM (inactive)	15.9 µM (inactive)	5.15 µM (inactive)	7.98 µM (inactive)	11.9 µM (inactive)	7.48 µM (inactive)	3.49 µM (inactive)	3.15 µM (inactive)	8.15 µM (inactive)	1.02 µM (active)	5.51 µM (inactive)
CSc1nnc(SCc2nn3c(=O)cc(C)nc3s2)s1	> 100 µM (inactive)	> 100 µM (inactive)	> 100 µM (inactive)	> 100 µM (inactive)	> 100 µM (inactive)	> 100 µM (inactive)	> 100 µM (inactive)	> 100 µM (inactive)	> 100 µM (inactive)	> 100 µM (inactive)	> 100 µM (inactive)	> 100 µM (inactive)	> 100 µM (inactive)	> 100 µM (inactive)	> 100 µM (inactive)	> 100 µM (inactive)	> 100 µM (inactive)	> 100 µM (inactive)	> 100 µM (inactive)	> 100 µM (inactive)
COc1ccccc1N1C(=O)/C(=C\c2cccc(Oc3ccccc3)c2)S(=O)(=O)C1c1ccccc1 (stereo unspecified)	> 100 µM (inactive)	33.9 µM (inactive)	> 100 µM (inactive)	> 100 µM (inactive)	–	17.3 µM (inactive)	28.2 µM (inactive)	40.1 µM (inactive)	50 µM (inactive)	27.4 µM (inactive)	> 100 µM (inactive)	41.4 µM (inactive)	–	21.5 µM (inactive)	50 µM (inactive)	49.3 µM (inactive)	53.6 µM (inactive)	17.8 µM (inactive)	46.8 µM (inactive)	–
S=C(N/N=C\C(=N/NC(=S)N1CCCCC1)c1ccccc1)N1CCCCC1	2.28 µM (inactive)	–	2.08 µM (inactive)	2.43 µM (inactive)	2.23 µM (inactive)	5.68 µM (inactive)	2.03 µM (inactive)	3.33 µM (inactive)	1.92 µM (inactive)	2.81 µM (inactive)	1.84 µM (inactive)	1.92 µM (inactive)	1.99 µM (inactive)	1.77 µM (inactive)	1.9 µM (inactive)	2 µM (inactive)	1.84 µM (inactive)	1.99 µM (inactive)	1.74 µM (inactive)	2.36 µM (inactive)
COc1cc2c(c(OC)c1OC)C(=O)CC2N (stereo unspecified)	> 100 µM (inactive)	> 100 µM (inactive)	> 100 µM (inactive)	–	> 100 µM (inactive)	> 100 µM (inactive)	> 100 µM (inactive)	> 100 µM (inactive)	> 100 µM (inactive)	> 100 µM (inactive)	> 100 µM (inactive)	> 100 µM (inactive)	> 100 µM (inactive)	> 100 µM (inactive)	> 100 µM (inactive)	> 100 µM (inactive)	> 100 µM (inactive)	> 100 µM (inactive)	> 100 µM (inactive)	> 100 µM (inactive)
CC(C)=CCCC1(Sc2ccccc2)C(=O)OCC1C=C(C)C (stereo unspecified)	13.5 µM (inactive)	32.4 µM (inactive)	29.8 µM (inactive)	48.9 µM (inactive)	–	–	27 µM (inactive)	16.5 µM (inactive)	17.3 µM (inactive)	38.9 µM (inactive)	24.3 µM (inactive)	31.8 µM (inactive)	38.6 µM (inactive)	20.3 µM (inactive)	21.5 µM (inactive)	61.9 µM (inactive)	27.7 µM (inactive)	–	22.6 µM (inactive)	20.6 µM (inactive)
